The supplement of paper PMC10627819
In brackets after ≈: the same amount, converted by molar mass.

How the values were obtained:
[1] = tested on: S. aureus DSM 20231
[2] = tested on: S. pneumoniae D39V
[3] = tested on: S. aureus Newman; assay: fitness (endpoint OD595 vs no drug) (fraction); higher = more growth
Summary of the method: (§1)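 Volumes were 30 µl per well, or 55 µl for S. pneumoniae, in 384-well plates inoculated at OD595 0.01. Media were TSB, LB Lennox or CY at 37 °C, and OD595 was read every 30 min for 14 h with first-reading background subtraction. Fitness is the ratio of optical density at stationary-phase entry to the robust mean of no-drug controls. That ratio is capped at 1.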

[4] = tested on: S. aureus DSM 20231; assay: as above
Summary of the method: as §1

[5] = tested on: S. pneumoniae D39V; assay: as above
Summary of the method: as §1

[6] = tested on: B. subtilis 168; assay: as above
Summary of the method: as §1

[7] = tested on: S. aureus Newman; assay: Bliss interaction score (quartile over a dose matrix) (fitness difference); higher = more antagonism (negative = synergy)
Summary of the method: (§2)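 Fitness here means normalised growth, inferred for single drugs from the combination data. Growth was OD595 at entry into stationary phase, divided by the plate's robust no-drug mean and capped at 1. The Bliss score is observed minus expected fitness, with the expectation being the product, and its quartiles span technical, biological and donor/recipient replicates.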

[8] = tested on: S. aureus DSM 20231; assay: as above
Summary of the method: as §2

[9] = tested on: S. pneumoniae D39V; assay: as above
Summary of the method: as §2

[10] = tested on: B. subtilis 168; assay: as above
Summary of the method: as §2
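Wherever Bliss interaction score (quartile over a dose matrix) is given: first quartile when negative (synergy) and third quartile when positive (antagonism).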

Oc1cc(Cl)ccc1Oc1ccc(Cl)cc1Cl [Triclosan]
Settings | MIC [µg/mL]
[1] | 0.08 (≈ 0.276 µM)
[2] | 16 (≈ 55.3 µM)

Cn1c2cccc(=O)c-2nc2ccccc21 [Pyocyanin] + CN[C@@H]1[C@H](O)[C@H](NC)[C@H]2O[C@@]3(O)C(=O)C[C@@H](C)O[C@H]3O[C@@H]2[C@H]1O [Spectinomycin]
fitness
Settings | partner 2 µg/mL | partner 4 µg/mL | partner 8 µg/mL | partner 16 µg/mL
[3], first compound 1.25 µg/mL | – | 0.853 | 0.867 | 0.853
[3], first compound 2.5 µg/mL | – | 0.761 | 0.766 | 0.697
[4], first compound 1.25 µg/mL | – | 0.884 | 0.93 | 0.82
[4], first compound 2.5 µg/mL | – | 0.868 | 0.86 | 0.716
[4], first compound 5 µg/mL | – | 0.688 | 0.726 | 0.582
[5], first compound 0.325 µg/mL | – | 0.995 | 0.955 | –
[5], first compound 0.65 µg/mL | – | 0.96 | 0.944 | –
[6], first compound 1.25 µg/mL | 0.907 | 0.914 | 0.861 | –
[6], first compound 2.5 µg/mL | 0.887 | 0.876 | 0.857 | –
[6], first compound 5 µg/mL | 0.762 | 0.757 | 0.708 | –

fitness, one replicate
Settings | [3] | [4] | [5]
first compound 0.325 µg/mL, partner 16 µg/mL | – | – | 0.729
first compound 0.65 µg/mL, partner 16 µg/mL | – | – | 0.885
first compound 1.25 µg/mL, partner 32 µg/mL | 0.591 | 0.656 | –
first compound 1.25 µg/mL, partner 64 µg/mL | 0.11 | 0.0503 | –
first compound 1.3 µg/mL, partner 4 µg/mL | – | – | 0.776
first compound 1.3 µg/mL, partner 8 µg/mL | – | – | 0.792
first compound 2.5 µg/mL, partner 32 µg/mL | 0.489 | 0.638 | –
first compound 2.5 µg/mL, partner 64 µg/mL | 0.0964 | 0.0416 | –
first compound 5 µg/mL, partner 32 µg/mL | 0.268 | 0.342 | –
first compound 5 µg/mL, partner 64 µg/mL | 0.0535 | 0.0295 | –

Settings | Bliss interaction score
[7] | 0.0628
[8] | -0.0492
[9] | 0.0496
[10] | -0.0432

Cc1onc(-c2ccccc2)c1C(=O)N[C@@H]1C(=O)N2[C@@H]1SC(C)(C)[C@@H]2C(=O)O [Oxacillin] + CN[C@@H]1[C@H](O)[C@H](NC)[C@H]2O[C@@]3(O)C(=O)C[C@@H](C)O[C@H]3O[C@@H]2[C@H]1O [Spectinomycin]
fitness
Settings | partner 2 µg/mL | partner 4 µg/mL | partner 8 µg/mL | partner 16 µg/mL
[3], first compound 0.0156 µg/mL | – | 0.757 | 0.751 | 0.766
[3], first compound 0.0312 µg/mL | – | 0.688 | 0.672 | 0.586
[3], first compound 0.0625 µg/mL | – | 0.596 | 0.555 | 0.528
[4], first compound 0.0156 µg/mL | – | 0.779 | 0.802 | 0.764
[4], first compound 0.0312 µg/mL | – | 0.681 | 0.684 | 0.665
[4], first compound 0.0625 µg/mL | – | 0.482 | 0.497 | 0.489
[5], first compound 0.01 µg/mL | – | 0.94 | 0.93 | 0.819
[5], first compound 0.02 µg/mL | – | 0.884 | 0.889 | 0.788
[5], first compound 0.04 µg/mL | – | 0.373 | 0.455 | 0.415
[6], first compound 0.002 µg/mL | 0.966 | 0.984 | 0.899 | –
[6], first compound 0.004 µg/mL | ≥ 1 | ≥ 1 | 0.874 | –
[6], first compound 0.008 µg/mL | 0.982 | 0.993 | 0.87 | –

fitness, one replicate
Settings | first compound 0.0156 µg/mL | first compound 0.0312 µg/mL | first compound 0.0625 µg/mL | first compound 0.075 µg/mL | first compound 0.15 µg/mL | first compound 0.3 µg/mL
[3], partner 32 µg/mL | 0.483 | 0.272 | 0.135 | – | – | –
[3], partner 64 µg/mL | 0.0551 | 0.0867 | 0.0035 | – | – | –
[4], partner 32 µg/mL | 0.601 | 0.628 | 0.509 | – | – | –
[4], partner 64 µg/mL | 0.0615 | 0.0592 | 0.0362 | – | – | –
[6], partner 2 µg/mL | – | – | – | 0.467 | 0.0332 | 0.0357
[6], partner 4 µg/mL | – | – | – | 0.394 | 0.034 | 0.0431
[6], partner 8 µg/mL | – | – | – | 0.0241 | 0.0342 | 0.0299

Settings | Bliss interaction score
[7] | -0.0743
[8] | -0.0526
[9] | 0.0929
[10] | 0.0285

Cc1onc(-c2ccccc2)c1C(=O)N[C@@H]1C(=O)N2[C@@H]1SC(C)(C)[C@@H]2C(=O)O [Oxacillin] + CCN(CC)CCOC(=O)c1ccc(N)cc1 [Procaine]
fitness
Settings | partner 85.5 µg/mL | partner 171 µg/mL | partner 342 µg/mL
[3], first compound 0.0312 µg/mL | 0.686 | – | –
[4], first compound 0.0156 µg/mL | 0.782 | 0.916 | 0.852
[4], first compound 0.0312 µg/mL | 0.64 | 0.738 | 0.712
[4], first compound 0.0625 µg/mL | 0.443 | 0.513 | 0.514
[5], first compound 0.01 µg/mL | ≥ 1 | ≥ 1 | 0.998
[5], first compound 0.02 µg/mL | 0.933 | 0.932 | 0.925
[5], first compound 0.04 µg/mL | – | – | 0.497
[6], first compound 0.002 µg/mL | 0.938 | 0.932 | 0.894
[6], first compound 0.004 µg/mL | 0.966 | 0.913 | 0.911
[6], first compound 0.008 µg/mL | 0.963 | 0.916 | 0.867

fitness, [6], one replicate
Settings | first compound 0.075 µg/mL | first compound 0.15 µg/mL | first compound 0.3 µg/mL
partner 85.5 µg/mL | 0.637 | 0.0445 | 0.056
partner 171 µg/mL | 0.535 | 0.0452 | 0.0565
partner 342 µg/mL | 0.577 | 0.041 | 0.0536

Settings | Bliss interaction score
[7] | -0.0416
[8] | -0.0703
[9] | 0.0938
[10] | 0.0581
